Earlier results in patent publication US20040142353A1, “Compositions and methods for identifying plants having increased tolerance to imidazolinone herbicides” (priority 2002, published 2004).
Read-outs that look alike come from different tables or passages of the source.

Assays:
[1] = system: B. napus mutants P1 and P2; conditions: B. napus (cv 'Topas') mutants P1 and P2
[2] = system: B. napus P1, P2, and P1×P2 hybrid; conditions: field trials

CCc1cnc(C2=NC(C)(C(C)C)C(=O)N2)c(C(=O)O)c1 (centres unmarked) [PURSUIT®, 2-[4,5-dihydro-4-methyl-4-(1-methylethyl)-5-oxo-1H-imidazol-2-yl]-5-ethyl-3-pyridinecarboxylic acid]
tolerance of mutant AHAS enzyme relative to wild type enzyme (AHAS enzyme; AHAS enzyme of homozygous P1 mutant vs wild type enzyme): only slightly more tolerant | tolerance of mutant AHAS enzyme relative to wild type enzyme (AHAS enzyme; AHAS enzyme of homozygous P2 mutant vs wild type enzyme): 500 times | level of herbicide tolerated by mutant plants [1]: approaching ten times the field-recommended rates

methyl esters of 2-[4,5-dihydro-4-methyl-4-(1-methylethyl)-5-oxo-1H-imidazol-2-yl]-4-methylbenzoic acid and 2-[4,5-dihydro-4-methyl-4-(1-methylethyl)-5-oxo-1H-imidazol-2-yl]-5-methylbenzoic acid [ASSERT®]
application rate withstood with no loss of yield [2]: up to 800 g/ha | level of herbicide tolerated by mutant plants [1]: approaching ten times the field-recommended rates
